The text below walks through data of ChEMBL document CHEMBL4402583, “Rational Substitution of ε-Lysine for α-Lysine Enhances the Cell and Membrane Selectivity of Pore-Forming Melittin” (J Med Chem, 2020).

Converted amounts (≈) assume the structure as drawn.

Data set [1] relates to Enterococcus faecalis. The data set can be described thus: Antibacterial activity against Mel-5-resistant vancomycin-resistant Enterococcus faecalis 1010 assessed as reduction in bacterial growth measured after 24 hrs by broth microdilution method. Type of data set: functional. The note with it: Enterococcus faecalis, 1010, 24 h. In general terms: Dilution methods test growth across graded concentrations, often in twofold steps.

Data set [2] concerns Staphylococcus aureus. The data set can be described thus: In vivo antibacterial activity against Staphylococcus aureus ATCC 29213 infected in C57BL/6 mouse assessed as reduction in bacterial burden by measuring log10 CFU/cornea at 0.3% administered topically as two times on day 1, four times on day 2 and two times on day 3 measured at 48 hrs post-final dose by 10 fold serial dilution method (reference value: 6.5 +/- 0.7 log10CFU). Format: functional.

Data set [3] has as its system Enterococcus faecalis. The data set can be described thus: Ratio of MIC for vancomycin-resistant Enterococcus faecalis 1010 to MIC for Mel-5-resistant vancomycin-resistant Enterococcus faecalis 1010 incubated for 24 hrs by broth microdilution method. Format: functional.
Data set [4] deals with Enterococcus faecalis. The data set can be described thus: Antibacterial activity against vancomycin-resistant Enterococcus faecalis 1010 assessed as reduction in bacterial growth measured after 24 hrs by broth microdilution method. Format: functional. The note with it: Enterococcus faecalis, 1010, 24 h.
Data set [5] deals with Enterococcus faecalis. The data set can be described thus: Ratio of MIC for Mel-5-resistant vancomycin-resistant Enterococcus faecalis 1010 to MIC for vancomycin-resistant Enterococcus faecalis 1010 incubated for 24 hrs by broth microdilution method. Type of data set: functional.
Data set [6] deals with Enterococcus faecalis. The data set can be described thus: Resistance index, ratio of MIC for vancomycin-resistant Enterococcus faecalis 1010 measured after 14 serial passages by broth microdilution method to MIC for vancomycin-resistant Enterococcus faecalis 1010 incubated for 24 hrs by broth microdilution method. Type of data set: functional.
For data set [7], the system named is NHDF. The data set can be described thus: Cytotoxicity against HDF cells assessed as reduction in metabolic activity at 500 ug/ml incubated for 24 hrs by MTS assay relative to control. Also noted: scale not given: the % may be the effect or the level left. Type of data set: ADME, cell-based. The following applies: human. Background: Tetrazolium dyes change colour on reduction, which living cells bring about.

Data set [8] in a line: Cytotoxicity against HDF cells assessed as minimum cytotoxic concentration incubated for 24 hrs by MTS assay. The note with it: human, HDF cells (NHDF, human dermal fibroblasts). Format: cell-based.
Another data set has as its system Pseudomonas aeruginosa. The data set can be described thus: Antibacterial activity against Pseudomonas aeruginosa assessed as reduction in bacterial growth incubated for 24 hrs by broth microdilution method. Format: functional.
Data set [9] deals with Staphylococcus aureus. The data set can be described thus: Antibacterial activity against Staphylococcus aureus assessed as reduction in bacterial growth incubated for 24 hrs by broth microdilution method. Type of data set: functional.
The test system of the next data set is Candida albicans. The data set can be described thus: Antifungal activity against Candida albicans assessed as reduction in fungal growth incubated for 24 hrs by broth microdilution method. Format: functional.
The nature of data set [10]: Cytotoxicity against HDF cells assessed as cell viability at 125 ug/ml incubated for 24 hrs by MTS assay relative to control. The note with it: human, HDF cells (NHDF, human dermal fibroblasts); read-out: Activity. Type of data set: cell-based.
Data set [11] is described as follows: Cytotoxicity against HDF cells assessed as cell viability at 250 ug/ml incubated for 24 hrs by MTS assay relative to control. Format: cell-based. The following applies: human, HDF cells (NHDF, human dermal fibroblasts); read-out: Activity.
The subject of data set [12] is Lipid bilayer. The data set can be described thus: Induction of pore formation in negatively charged DOPE/DOPG large unilamellar vesicles assessed as calcein release at 0.39 to 50 uM measured for 60 mins by fluorescence based assay.
The test system of data set [13] is Lipid bilayer. The data set can be described thus: Induction of pore formation in zwitterionic DOPC/cholesterol large unilamellar vesicles assessed as calcein release at 0.39 to 50 uM measured for 60 mins by fluorescence based assay.
The test system of data set [14] is Staphylococcus aureus. The data set can be described thus: Antibacterial activity against methicillin-sensitive Staphylococcus aureus assessed as reduction in bacterial growth incubated for 24 hrs by broth microdilution method. Type of data set: functional.
Data set [15] deals with Staphylococcus aureus. The data set can be described thus: Antibacterial activity against methicillin-resistance Staphylococcus aureus assessed as reduction in bacterial growth incubated for 24 hrs by broth microdilution method. Format: functional.
The subject of another data set is Enterococcus. The data set can be described thus: Antibacterial activity against vancomycin-resistant Enterococcus assessed as reduction in bacterial growth incubated for 24 hrs by broth microdilution method. Type of data set: functional.
The next data set deals with Acinetobacter baumannii. The data set can be described thus: Antibacterial activity against multidrug-resistant Acinetobacter baumannii assessed as reduction in bacterial growth incubated for 24 hrs by broth microdilution method. Type of data set: functional.
In another data set the test system is Enterobacteriaceae. The data set can be described thus: Antibacterial activity against Carbapenem-Resistant Enterobacteriaceae assessed as reduction in bacterial growth incubated for 24 hrs by broth microdilution method. Type of data set: functional.
The test system of data set [16] is NHDF. The data set can be described thus: Cytotoxicity against HDF cells at 250 ug/ml incubated for 24 hrs by Alexa Fluor […] phalloidin-FITC/Hoescht dye staining based fluorescence microscopic analysis. Type of data set: cell-based. The following applies: human.
Data set [17] can be described thus: Cytotoxicity against HDF cells assessed as minimum cytotoxic concentration incubated for 24 hrs by Alexa Fluor […] phalloidin-FITC/Hoescht dye staining based fluorescence microscopic analysis. Type of data set: cell-based. The following applies: human, HDF cells (NHDF, human dermal fibroblasts).

With `COc1c(N2CCNC(C)C2)c(F)cc2c(=O)c(C(=O)O)cn(C3CC3)c12` (stereo not given) [GATIFLOXACIN], the MIC (in general, the least concentration at which growth counts as inhibited) was determined as 8 µg/mL (≈ 21.3 µM) in the data set with Enterococcus faecalis [1] and 4 µg/mL (≈ 10.7 µM) in the data set with Enterococcus faecalis [4]. The Activity with Staphylococcus aureus [2] was found to be 2.5 log10CFU. Moreover, the Ratio in the data set on Enterococcus faecalis [3] stood at 8.
Turning to `CCCCCCCCCC(=O)N[C@@H](Cc1c[nH]c2ccccc12)C(=O)N[C@H](CC(N)=O)C(=O)N[C@@H](CC(=O)O)C(=O)N[C@@H]1C(=O)NCC(=O)N[C@@H](CCCN)C(=O)N[C@@H](CC(=O)O)C(=O)N[C@H](C)C(=O)N[C@@H](CC(=O)O)C(=O)NCC(=O)N[C@H](CO)C(=O)N[C@@H]([C@@H](C)CC(=O)O)C(=O)N[C@@H](CC(=O)c2ccccc2N)C(=O)O[C@@H]1C`, the values for the MIC in the data set on Enterococcus faecalis [1] and with Enterococcus faecalis [4] were > 512 µg/mL and 64 µg/mL (≈ 39.5 µM), respectively. Also, the Ratio in the data set with Enterococcus faecalis [5] was >128; in the data set with Enterococcus faecalis [6] it was 4.
Take `CC[C@H](C)[C@H](NC(=O)CN)C(=O)NCC(=O)N[C@@H](C)C(=O)N[C@H](C(=O)N[C@@H](CC(C)C)C(=O)NCCC[C@@H](CN)C(=O)N[C@H](C(=O)N[C@@H](CC(C)C)C(=O)N[C@H](C(=O)N[C@H](C(=O)NCC(=O)N[C@@H](CC(C)C)C(=O)N1CCC[C@H]1C(=O)N[C@@H](C)C(=O)N[C@@H](CC(C)C)C(=O)N[C@H](C(=O)N[C@@H](CO)C(=O)N[C@@H](Cc1c[nH]c2ccccc12)C(=O)N[C@H](C(=O)N[C@@H](CCCCN)C(=O)N[C@@H](CCCNC(=N)N)C(=O)N[C@@H](CCCCN)C(=O)N[C@@H](CCCNC(=N)N)C(=O)N[C@@H](CCC(N)=O)C(=O)N[C@@H](CCC(N)=O)C(N)=O)[C@@H](C)CC)[C@@H](C)CC)[C@@H](C)O)[C@@H](C)O)C(C)C)C(C)C`: the Activity was 100% in the data set on NHDF [7], 41.8% in the data set with Lipid bilayer [12], 7.8% with Lipid bilayer [13] and “Toxic” with NHDF [16]. Also, the MCC at 24 h in data set [8] and in data set [17] was > 125 µg/mL throughout. Also, the MIC was in the range of 8 to 64 µg/mL (≈ 2.81 to 22.5 µM) with Pseudomonas aeruginosa; 8 to 32 µg/mL (≈ 2.81 to 11.2 µM) in the data set with Staphylococcus aureus [9]; 4 to 8 µg/mL (≈ 1.41 to 2.81 µM) in the data set on Candida albicans; 4 to 32 µg/mL (≈ 1.41 to 11.2 µM) in the data set on Staphylococcus aureus [14]; 4 to 32 µg/mL (≈ 1.41 to 11.2 µM) in the data set with Enterococcus; 2 to 4 µg/mL (≈ 0.703 to 1.41 µM) in the data set on Acinetobacter baumannii. The MIC in the data set on Enterobacteriaceae lay within 4 to 64 µg/mL (≈ 1.41 to 22.5 µM). The MIC50 – broadly, an inhibitory concentration at the 50% level, which refers to growth in some studies and to a panel of isolates in others – in the data set with Pseudomonas aeruginosa was determined as 16 µg/mL (≈ 5.62 µM); in the data set with Candida albicans it was 4 µg/mL (≈ 1.41 µM); in the data set with Staphylococcus aureus [14] it was 16 µg/mL (≈ 5.62 µM); with Staphylococcus aureus [15] it was 16 µg/mL (≈ 5.62 µM); in the data set on Enterococcus it was 8 µg/mL (≈ 2.81 µM); with Acinetobacter baumannii, 2 µg/mL (≈ 0.703 µM). Besides, in the data set with Enterobacteriaceae, the MIC50 came out at 8 µg/mL (≈ 2.81 µM). Moreover, in data set [10], the viability at 24 h, 125 ug/ml is 112%. In addition, the viability at 24 h, 250 ug/ml in data set [11] amounted to 32.4%.
